Measured values from patent publication US20230293428A1, “Drug delivery via contact lenses and similar ophthalmic devices” (Colorado School of Mines, priority 2021, published 2023).
Structures can show the parent of a compound that is named as a salt.

Key:
[1] = In vitro timolol release from drug-loaded contact lenses into PBS, fitted to Fick's diffusion (perfect sink) model; assay type: physicochemical
Experimental: After drug loading, the lenses were removed from the timolol maleate solution and gently wiped with KimWipe to remove the excess solution remaining on the surface. Each lens was then placed in 3 mL of fresh PBS solution for in vitro drug release. The optical absorption spectra of the release media were measured by the same spectrophotometer used in Example 2. The concentration of the timolol in the release medium was determined by fitting the optical absorption spectra in the range of 260 to 340 nm with the calibration spectrum of timolol maleate using MATLAB's minimization of least square error method. The drug release profiles were fitted using a perfect sink model to determine drug diffusivity. By solving the Fick's law diffusion equation, the mass percent of the drug released as a function of time is given by […] To further investigate this effect, the diffusion coefficients of timolol in the lenses were calculated by fitting the release curves to Fick's diffusion equation as described above. […] As Table 5 illustrates, the diffusion coefficients of timolol from these lenses are about a third of the diffusion coefficient from control (blank/unloaded) lenses (circular data points in FIG. 5), which results in extension of release by about 10 hours.

[2] = Partition coefficient of timolol maleate between contact lens and loading solution; assay type: physicochemical
Experimental: Timolol maleate was dissolved in PBS to prepare a 1.5 mg/mL solution. Each hydrated contact lens (both blank and vitamin E-loaded) was placed in 3 mL of this solution for 7 days to load the drug in the lenses.
The partition coefficient K of the drug is defined as the ratio of the concentration of the drug in the lens to the concentration of the drug in the medium when equilibrium is reached during the drug loading process. […] The concentration in the lens after 7 days of loading can be determined by dividing the total mass of the drug in the lens by the volume, and the mass of the drug can be determined from the release data based on the assumption that 100% of the drug is released due to the large volume of release medium compared to the lens volume. Therefore, the partition coefficient K is calculated as
where Clens and Cloading are the concentration of the drug in the lens and the loading solution at equilibrium, respectively, Vrelease and Vlens are the volume of the release medium and the contact lens, respectively, and Crelease is the final concentration of the drug in the release medium.

[3] = lens with 0 wt % vitamin E (blank), solvent n/a
[4] = lens with 8.4 wt % vitamin E, loaded from pure EtOH
[5] = lens with 8.6 wt % vitamin E, loaded from 75:25 EtOH:H2O
[6] = lens with 9.3 wt % vitamin E, loaded from 85:15 EtOH:H2O
[7] = lens with 19.3 wt % vitamin E, loaded from pure EtOH
[8] = lens with 19.9 wt % vitamin E, loaded from 85:15 EtOH:H2O
[9] = lenses with vitamin E loads of 8 to 10 wt %

D, diffusion coefficient of timolol maleate from contact lens [1, 3]: 2.04 · 10^−13 ± 0 m^2/s | D, diffusion coefficient of timolol maleate from contact lens [1, 4]: (7.42 ± 1.49) · 10^−14 m^2/s | D, diffusion coefficient of timolol maleate from contact lens [1, 5]: (6.20 ± 0.329) · 10^−14 m^2/s | D, diffusion coefficient of timolol maleate from contact lens [1, 6]: 5.09 · 10^−14 ± 0 m^2/s | D, diffusion coefficient of timolol maleate from contact lens [1, 7]: (1.62 ± 0.219) · 10^−14 m^2/s | D, diffusion coefficient of timolol maleate from contact lens [1, 8]: (13.2 ± 0.936) · 10^−15 m^2/s | diffusion coefficient of timolol relative to control (blank/unloaded) lenses [1, 9]: about a third | extension of timolol release versus control (blank) lenses [1, 9]: about 10 hours | timolol release time ([1]; lenses with vitamin E loads of 8 to 10 wt %, made from different loading solutions): about 12 hours | duration of timolol release ([1]; lenses with vitamin E loads of 19 to 20 wt %, two different solutions): more than 70 hours | duration of release of timolol from the lens ([1]; vitamin E loads of about 10 wt %): about 10 hours | duration of release of timolol from the lens ([1]; vitamin E loads of about 20 wt %): about 70 hours | K, partition coefficient of timolol maleate in contact lens [2, 3]: 0.7125 ± 0.0168 | K, partition coefficient of timolol maleate in contact lens [2, 4]: 0.6050 ± 0.0171 | K, partition coefficient of timolol maleate in contact lens [2, 5]: 0.6757 ± 0.0152 | K, partition coefficient of timolol maleate in contact lens [2, 6]: 0.7969 ± 0.0242 | K, partition coefficient of timolol maleate in contact lens [2, 7]: 0.5739 ± 0.0069 | K, partition coefficient of timolol maleate in contact lens [2, 8]: 0.6108 ± 0.0489
Compound: CC(C)(C)NC[C@H](O)COc1nsnc1N1CCOCC1 [timolol maleate, Timolol maleate]
